Values quoted from earlier work in patent US20240156991A1, “STABLE FORMULATIONS OF INDOCYANINE GREEN” (PROVEPHARM LIFE SOLUTIONS, priority 2021, published 2024).

reduction of absorbance at spectral peak (after 10 hours of storage in water and direct light): 10%
fluorescence intensity lost (stored at 4° C. in the dark, three days): 20%
SMILES: CC1(C)C(/C=C/C=C/C=C/C=C2\N(CCCCS(=O)(=O)O)c3ccc4ccccc4c3C2(C)C)=[N+](CCCCS(=O)(=O)O)c2ccc3ccccc3c21 [ICG, Indocyanine green]
